Our source for the IC50 values is patent US8153805B2, “Biaryl derivatives” (Hoffmann-La Roche Inc., priority 2007, dated 2012).

By IC50 is commonly meant the point on the concentration scale where inhibition reaches its midpoint.

The structures appear in SMILES notation.

This assay addresses T1, human CCR2B (Homo sapiens, UniProt P41597).
T1 construct: host or cells: CHO-K1 (CHOK1-CCR2B-A5)
T1 sequence (P41597 1-360 isoform P41597-2): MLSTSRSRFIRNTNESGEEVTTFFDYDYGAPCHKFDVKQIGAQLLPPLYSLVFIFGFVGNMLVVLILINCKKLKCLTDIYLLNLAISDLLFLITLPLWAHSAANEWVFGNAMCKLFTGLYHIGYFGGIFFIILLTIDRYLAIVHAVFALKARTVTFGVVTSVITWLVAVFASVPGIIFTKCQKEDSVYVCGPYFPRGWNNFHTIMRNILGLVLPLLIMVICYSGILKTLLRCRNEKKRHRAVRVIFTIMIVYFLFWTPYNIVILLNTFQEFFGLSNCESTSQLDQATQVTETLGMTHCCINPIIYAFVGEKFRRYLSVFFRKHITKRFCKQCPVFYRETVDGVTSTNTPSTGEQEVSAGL
Nature of the assay: Calcium mobilization assay (FLIPR, MCP-1 stimulated CHOK1-CCR2B-A5 cells). Particulars: antagonist activity vs 20 nM MCP-1, CHOK1-CCR2B-A5 cells. In kind it is cell-based. As for the experimental part:
Calcium Mobilization Assay
CHOK1-CCR2B-A5 cells (from Euroscreen) stably overexpressing the human chemokine receptor 2 isoform B were cultured in Nutrient Hams F12 medium supplemented with 5% FBS, 100 U/ml penicillin, 100 μg/ml streptomycin, 400 μg/ml G418 and 5 μg/ml puromycin.
For the assay cells were grown overnight in 384-well black clear flat bottom polystyrene plates (Costar) at 37° C. at 5% CO2. After washing with DMEM, 20 mM Hepes, 2.5 mM probenecid, 0.1% BSA (DMEM assay buffer) cells were loaded with 4 μM Fluo-4 in the same DMEM assay buffer for 2 hours at 30° C. Excess dye was removed and cells were washed with DMEM assay buffer. 384-well compound plates were prepared with DMEM assay buffer/0.5% DMSO with or without various concentrations of test compounds. Usually compounds were tested for agonist and antagonist activity.
Test compounds were added to the assay plate and agonist activity was monitored as fluorescence for 80 seconds with a FLIPR (488 nm excitation; 510-570 nm emission; Molecular Devices). After 20-30 min. of incubation at 30° C., 20 nM MCP-1 (R&D; Roche) was added and fluorescence was monitored again for 80 seconds. Increases in intracellular calcium are reported as maximum fluorescence after agonist exposure minus basal fluorescence before exposure. Antagonist activity is indicated as inhibitor concentration required for 50% inhibition of specific calcium increases.
On the technique in general: Calcium flux is commonly read through the fluorescence of an indicator in the cells.

`Cc1cc(-c2cccc(C(F)(F)F)c2)nc(OCCO)c1C(=O)N1CCC(N2CCCC2)CC1` [Example 53, [2-(2-Hydroxy-ethoxy)-4-methyl-6-(3-trifluoromethyl-phenyl)-pyridin-3-yl]-(4-pyrrolidin-1-yl-piperidin-1-yl)-methanone]: the half-maximal inhibitory concentration (IC50) was 0.011 µM.
